These results are taken from article PMC9385722 (Scientific Reports, 2022).

The assay deals with T1, TaHeR (Thermoplasmatales archaeon SG8-52-1, UniProt Z9O312AX90).
T1 construct: wild type, N-terminal 6xHis tag, pET21a(+), E. coli C43(DE3), purified in octyl glucoside; symmetric dimer, one protomer in asymmetric unit
T1 sequence (Z9O312AX90 1-259): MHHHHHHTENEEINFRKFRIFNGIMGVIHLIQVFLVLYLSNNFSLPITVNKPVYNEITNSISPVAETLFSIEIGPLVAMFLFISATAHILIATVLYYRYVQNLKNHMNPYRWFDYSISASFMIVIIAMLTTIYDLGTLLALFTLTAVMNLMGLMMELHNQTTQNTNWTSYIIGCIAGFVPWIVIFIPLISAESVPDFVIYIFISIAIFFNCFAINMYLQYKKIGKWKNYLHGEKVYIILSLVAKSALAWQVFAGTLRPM
Put plainly: absorption red-shift titration with NaCl. In kind it is binding. The settings on record: pH 5.0, up to 300 mM NaCl; anion site in Schiff base cavity near protonated Glu-108; crystal structure at pH 4.5 also shows a second, extracellular chloride.

Structures are written as SMILES.

The Kd is the constant that tells how readily two partners part at equilibrium. On to `Cl` [chloride], for which the Kd is around 67 mM.
